According to patent US7582655B2, “Antineoplastic compounds” (University of Saskatchewan, priority 2005, dated 2009):
Read-outs that look alike come from different tables or passages of the source.

What was measured:
[1] = test system: HCT 15; experiment: Human tumour cell line panel, colon cancer HCT 15; type: cell-based; conditions: 48 h; read-out: Colon cancer cells, IC50(μM) HCT 15
Description: (§1) In addition, both 5-fluorouracil and melphalan were evaluated towards 57 cell lines. […] MG MID is the average of the potencies of the compound to approximately 50 neoplastic cell lines.

[2] = test system: human squamous cell carcinomas HSC-2; experiment: Cytotoxicity CC50, MTT assay, HSC-2
Description: (§2) In addition, the compounds were evaluated against human squamous cell carcinomas (HSC-2 and HSC-4) and human promyelocytic leukemia neoplasms (HL-60) and compared with normal cells, i.e. human gingival fibroblasts (HGF), human pulp cells (HPC) and human periodontal ligament fibroblasts (HPLF).
(§3) MTT stands for 3-(4,5-dimethylthiazol-2-yl)-2,5-diphenyltetrazolium bromide). The cells were incubated with varying concentrations of the compounds along with untreated cells for 24 h and the absorbance at 540 nm measured. In the case of the HL-60 assay, the trypan blue exclusion method was followed and cell viability was determined using a haemocytometer. The CC50 values were obtained from dose-response curves (Sakagami, H.; Satoh, K.; Ohata, H.; Takahashi, H.; Yoshida, H.; Iida, M.; Kuribayashi, N.; Sakagami, T.; Momose, K.; Takeda, M. Anticancer Res. 1996, 16, 2635-2644). The general methods used in culturing the cells employed in these cytotoxicity experiments have been described previously (Kawase, M.; Sakagami, H.; Motohashi, N.; Hauer, H.; Chatterjee, S. S.; Spengler, G.; Vigyikanne, A. V.; Molnár, A.; Molnár, J. In Vivo 2005, 19, 705-712; and Takeuchi, R.; Hoshijima, H.; Onuki, N.; Nagasaka, H.; Chowdhury, S. A.; Kawase, M.; Sakagami, H. Anticancer Res. 2005, 25, 4037-4042). In brief, the malignant cells were obtained from Professor Nagumo, Showa University, Japan. The HGF, HPC and HPLF cells were prepared from human periodontal tissue after obtaining informed consent according to the guidelines of Meikai University Ethics Committee, Japan (No. 0206). Since normal cells have a short lifespan, cells at the 3-7 population doubling time were used. With the exception of the HL-60 neoplasm, the cells were cultured in DMEM containing heat-inactivated FBS (10%) at 37° C. in a humidified carbon dioxide atmosphere and subcultured by trypsinization. The HL-60 cells were cultured in a similar fashion except that RPMI 1640 media was employed.

[3] = test system: HCT 116; experiment: Human tumour cell line panel, colon cancer HCT 116; type: cell-based; conditions: 48 h; read-out: Colon cancer cells, IC50(μM) HCT 116
Description: as §1

[4] = test system: HSC-2, HSC-4 and HL-60 malignant cells; experiment: Average CC50 for malignant cells
Description: as §2, §3

[5] = test system: RPMI 8226; experiment: Human tumour cell line panel, leukemic RPMI 8226; type: cell-based; conditions: 48 h; read-out: Leukemic cells, IC50(μM) RPMI 8226
Description: as §1

[6] = test system: SW 620; experiment: Human tumour cell line panel, colon cancer SW 620; type: cell-based; conditions: 48 h; read-out: Colon cancer cells, IC50(μM) SW 620
Description: as §1

[7] = test system: human periodontal ligament fibroblasts (HPLF); experiment: Cytotoxicity CC50, MTT assay, normal HPLF cells
Description: as §2, §3

[8] = test system: KM 12; experiment: Human tumour cell line panel, colon cancer KM 12; type: cell-based; conditions: read-out: Colon cancer cells, IC50(μM) KM 12
Description: as §1

[9] = test system: human tumour cell lines; experiment: Panel of human tumour cell lines, all cell lines (mean graph midpoint); type: cell-based; conditions: mean graph midpoint, average of 49 (38-59) human tumour cell lines, 48 h incubation; read-out: All cell lines IC50
Description: A number of compounds of the invention were further assessed against numerous human malignant cell lines. An average of 49 cell lines from nine different neoplastic diseases, namely leukemia, melanoma, non-small cell lung, colon, central nervous system, ovarian, renal, prostate, and breast cancers were employed.
as §1

[10] = test system: COLO 205; experiment: Human tumour cell line panel, colon cancer COLO 205; type: cell-based; conditions: 48 h; read-out: Colon cancer cells, IC50(μM) COLO 205
Description: as §1

[11] = test system: human pulp cells (HPC); experiment: Cytotoxicity CC50, MTT assay, normal HPC cells
Description: as §2, §3

[12] = test system: K 562; experiment: Human tumour cell line panel, leukemic K 562; type: cell-based; conditions: 48 h; read-out: Leukemic cells, IC50(μM) K 562
Description: as §1

[13] = test system: human squamous cell carcinomas HSC-4; experiment: Cytotoxicity CC50, MTT assay, HSC-4
Description: as §2, §3

[14] = test system: human promyelocytic leukemia HL-60; experiment: Cytotoxicity CC50, trypan blue exclusion, HL-60
Description: as §2, §3

[15] = test system: human gingival fibroblasts (HGF); experiment: Cytotoxicity CC50, MTT assay, normal HGF cells
Description: as §2, §3

[16] = test system: HL 60; experiment: Human tumour cell line panel, leukemic HL 60; type: cell-based; conditions: 48 h; read-out: Leukemic cells, IC50(μM) HL 60
Description: as §1

[17] = test system: murine L-5178 lymphoma cells transfected with the human MDR1 gene; experiment: MDR reversal, rhodamine 123 fluorescence activity ratio; conditions: FAR >1 indicates MDR reversal; for FAR value 4 μg/ml: compound 4 μg/ml; for FAR value 40 μg/ml: compound 40 μg/ml
Description: A solution of the test compound (2 mg/ml, 10 μl) in dimethylsulfoxide was added to aliquots of the cell suspension and incubated at room temperature for 10 minutes. […] The cells were washed twice and resuspended in PBS (pH 7.4) after which the fluorescence was measured using a Beckton Dickinson FACScan instrument. The fluorescence of the cells was measured in treated MDR cells (F1), untreated MDR cells (F2), treated parental cells (F3) […] were obtained from the following equation, viz (F1/F2)/(F3/F4).

[18] = read-out: CC50(μM) HSC-2, 24 h, MTT, average of two determinations
[19] = average CC50 for HSC-2, HSC-4 and HL-60 malignant cells
[20] = read-out: CC50(μM) HPLF, normal cells, 24 h, MTT
[21] = read-out: CC50(μM) HPC, normal cells, 24 h, MTT
[22] = read-out: CC50(μM) HSC-4, 24 h, MTT, average of two determinations
[23] = read-out: CC50(μM) HL-60, 24 h, trypan blue exclusion, average of two determinations
[24] = read-out: CC50(μM) HGF, normal cells, 24 h, MTT

Compound	CC50 [2, 18]	CC50(μM) ave [4, 19]	CC50 [7, 20]	CC50 [11, 21]	CC50 [13, 22]	CC50 [14, 23]	CC50 [15, 24]	CC50 [2]	CC50(μM) ave [4]	CC50 [7]	FAR value 4 μg/ml [17]	FAR value 40 μg/ml [17]	CC50 [11]	CC50 [13]	CC50 [14]	CC50 [15]	further results
1-[4-(2-Diethylaminoethoxy)phenylcarbonyl]-3,5-bis(phenylmethylene)-4-piperidone hydrochloride hemihydrate [Compound 4a]	3.1 µM	1.9 µM	6 µM	12 µM	2 µM	0.61 µM	4.2 µM										IC50 [1]: 1.17 µM; IC50 [3]: < 0.01 µM; IC50 [5]: < 0.01 µM; IC50 [6]: 1.35 µM; IC50 [8]: 1.74 µM; IC50 [9]: < 1.38 µM; IC50 [10]: 2.63 µM; IC50 [12]: 0.043 µM
1-[4-(2-Dimethylaminoethoxy)phenylcarbonyl]-3,5-bis(4-nitrophenylmethylene)-4-piperidone hydrochloride hemihydrate [Compound 3c]	0.93 µM		5.9 µM	5.2 µM	0.71 µM	0.31 µM	7 µM										
1-[4-{2-(1-Piperidinyl)ethoxy}phenylcarbonyl]-3,5-bis(phenylmethylene)-4-piperidone hydrochloride hemihydrate [Compound 5a]	3 µM	2.3 µM	7.4 µM	12 µM	2.5 µM	1.4 µM	4.6 µM										
1-[4-{2-(4-Morpholinyl)ethoxy}phenylcarbonyl]-3,5-bis(4-nitrophenylmethylene)-4-piperidone hydrochloride hemihydrate [Compound 6c]	0.76 µM		9.3 µM	8.2 µM	0.74 µM	0.35 µM	12 µM										
1-[4-{2-(4-Morpholinyl)ethoxy}phenylcarbonyl]-3,5-bis(phenylmethylene)-4-piperidone hydrochloride hemihydrate [Compound 6a]	2.4 µM	2.0 µM	30 µM	95 µM	2.4 µM	1.2 µM	83 µM										IC50 [1]: 1.45 µM; IC50 [3]: 0.339 µM; IC50 [5]: 0.123 µM; IC50 [6]: 0.191 µM; IC50 [16]: 0.562 µM; IC50 [8]: 0.129 µM; IC50 [9]: > 2.63 µM; IC50 [10]: 22.9 µM; IC50 [12]: 0.158 µM
O=C1C(=Cc2ccc(Cl)cc2)CNCC1=Cc1ccc(Cl)cc1 [Compound 1b]								18 µM	20 µM	56 µM	1.25	0.91	130 µM	20 µM	22 µM	69 µM	
Cl.Cl.O.O.O.O=C1C(=Cc2ccc([N+](=O)[O-])cc2)CN(C(=O)c2ccc(OCCN3CCCCC3)cc2)CC1=Cc1ccc([N+](=O)[O-])cc1.O=C1C(=Cc2ccc([N+](=O)[O-])cc2)CN(C(=O)c2ccc(OCCN3CCCCC3)cc2)CC1=Cc1ccc([N+](=O)[O-])cc1 [Compound 5c, 3,5-bis(4-Nitrophenylmethylene)-1-[4-{2-(1-piperidinyl)ethoxy}phenylcarbonyl]-4-piperidone hydrochloride 1.5 hydrate]								0.86 µM		4.9 µM	145	51.5	3.9 µM	0.9 µM	0.29 µM	8 µM	
Cc1ccc(C=C2CN(C(=O)c3ccc(OCCN4CCCCC4)cc3)CC(=Cc3ccc(C)cc3)C2=O)cc1.Cc1ccc(C=C2CN(C(=O)c3ccc(OCCN4CCCCC4)cc3)CC(=Cc3ccc(C)cc3)C2=O)cc1.Cl.Cl.O [Compound 5d, 3,5-bis(4-Methylphenylmethylene)-1-[4-{1-piperidinyl)ethoxy}phenylcarbonyl]-4-piperidone hydrochloride hemihydrate]								2.9 µM		5.5 µM			15 µM	4.1 µM	2.3 µM	6 µM	IC50 [1]: 1.07 µM; IC50 [3]: 1.58 µM; IC50 [5]: 0.123 µM; IC50 [6]: 0.339 µM; IC50 [16]: 0.933 µM; IC50 ([8]; 48 h): 0.148 µM; IC50 [9]: 1.38 µM; IC50 [10]: 6.92 µM; IC50 [12]: 0.589 µM
Cc1ccc(C=C2CN(C(=O)c3ccc(OCCN4CCCCC4)cc3)CC(=Cc3ccc(C)cc3)C2=O)cc1.Cc1ccc(C=C2CN(C(=O)c3ccc(OCCN4CCCCC4)cc3)CC(=Cc3ccc(C)cc3)C2=O)cc1.Cl.Cl.O [Compound 5d]									3.1 µM		179	146					
Cl.O=C1C(=Cc2ccc(Cl)cc2)CN(C(=O)c2ccc(OCCN3CCOCC3)cc2)CC1=Cc1ccc(Cl)cc1 [Compound 6b]									42 µM		76.0	6.88					
CC[N+](C)(CC)CCOc1ccc(C(=O)N2CC(=Cc3ccc(Cl)cc3)C(=O)C(=Cc3ccc(Cl)cc3)C2)cc1.[I-] [Compound 7b, 3,5-bis(4-Chlorophenylmethylene)-1-[4-(2-diethylaminoethoxy)phenylcarbonyl]-4-piperidone methoiodide]								> 400 µM		9.4 µM	1.21	1.85	> 400 µM	220 µM	64 µM	> 400 µM	CC50 [4]: ≥ 228 µM
CC[N+](C)(CC)CCOc1ccc(C(=O)N2CC(=Cc3ccc([N+](=O)[O-])cc3)C(=O)C(=Cc3ccc([N+](=O)[O-])cc3)C2)cc1.[I-] [Compound 7c, 1-[4-(2-Diethylaminoethoxy)phenylcarbonyl]-3,5-bis(4-nitrophenylmethylene)-4-piperidone methoiodide]								67 µM	52 µM	13 µM	1.03	1.22	130 µM	61 µM	29 µM	93 µM	
[4-(2-Dimethylaminoethoxy)phenylcarbonyl]-3,5-bis(phenylmethylene)-4-piperidone hydrochloride [Compound 3a]	3.8 µM	2.3 µM			2.1 µM					8.9 µM	45.5	51.6			1 µM		
